Experiment [1] addresses T1, rat kidney aldose reductase (Rattus norvegicus, UniProt P07943).
T1 construct: Purified rat kidney aldose reductase enzyme; from tissue; host or cells: rat kidney
Kind of experiment: In vitro inhibition of purified rat kidney aldose reductase (NADPH absorbance decrease at 340 nm). Type of experiment: biochemical. The note with it: for Inhibition type: from Lineweaver-Burk graph, substrate DL-glyceraldehyde; for IC50: purified rat kidney AR, 10 mM DL-glyceraldehyde, 0.5 mM NADPH, pH 6.2, from Activity%-[Inhibitor] graphs; for Inhibition effect (in words): rat kidney AR, compared to the other phenolic acids of the study. How it is done: Aldose reductase activity was assayed by following the absorbance decrease of NADPH at 340 nm spectrophotometrically.
The dialyzed enzyme solution was loaded onto the DE-52 Cellulose anion exchange column previously equilibrated with 10 mM Na-phosphate buffer (pH 7.4). […] Eluted fractions were collected, and the enzyme activity was checked at 340 nm. The fractions with the enzyme activity were pooled and mixed with glycerol. Then this enzyme solution was loaded onto the Sephadex G-100 column equilibrated with 10 mM Na-phosphate buffer (pH 7.4). Fractions were analyzed for both protein amount (280 nm) and enzyme activity (340 nm). […] The enzyme activity was checked at 340 nm in collected fractions, and the tubes with enzyme activity were combined. All purification procedures were performed at 4 °C. SDS polyacrylamide gel electrophoresis was done to the control of enzyme purity.
In inhibition studies, aldose reductase activity was assayed by following the change in absorbance at 340 nm, spectrophotometrically. One millilitre of the reaction mix contained 0.2 M Na-phosphate buffer (pH = 6.2), 10 mM DL-glyceraldehyde, 0.5 mM NADPH and enzyme solution[45]. AR activity was measured in the presence of different concentrations of phenolic acids. A control sample without inhibitor was taken as 100%, and for each inhibitor, an Activity%-[Inhibitor] graphs were drawn. IC50 values were determined from Activity%-[Inhibitor] graphs. For determination of the Ki constant, three different phenolic acid concentrations were used, and DL-glyceraldehyde was also used as a substrate at five different concentrations. […] Analysis of data obtained was made by t-test and they are given as X ± SD.

The subject of experiment [2] is human placental aldose reductase. Further details: method as in PMID 2505942. Particulars: cited from earlier work.
Where [3] appears, read: Lineweaver-Burk graph, three inhibitor concentrations, five DL-glyceraldehyde concentrations, X ± SD.
The mark [4] stands for this setting: mixed-type inhibition, second constant, Lineweaver-Burk graph, X ± SD.

Entries after “also recorded” stand apart in the source; their conditions may differ.

Broadly, the Ki is a measure of affinity in units of concentration, obtained from inhibition or displacement. A lower Ki goes with a stronger hold on the target. Usually IC50 stands for the concentration that gives 50% inhibition. Read a high IC50 as weaker potency.

For `COc1cc(C(=O)O)cc(OC)c1O` [Syringic acid], the Ki in experiment [1] (setting [3]) is 107 ± 21.6 µM. Moreover, in experiment [1], the Inhibition type entry was “Noncompetitive” and the IC50 stood at 95 µM.

For the compound `O=C(OCC1OC(OC(=O)c2cc(O)c(O)c(OC(=O)c3cc(O)c(O)c(O)c3)c2)C(OC(=O)c2cc(O)c(O)c(OC(=O)c3cc(O)c(O)c(O)c3)c2)C(OC(=O)c2cc(O)c(O)c(OC(=O)c3cc(O)c(O)c(O)c3)c2)C1OC(=O)c1cc(O)c(O)c(OC(=O)c2cc(O)c(O)c(O)c2)c1)c1cc(O)c(O)c(OC(=O)c2cc(O)c(O)c(O)c2)c1` (stereo not shown) [Tannic acid], in experiment [2], the “Inhibition effect (in words)” value is “potent inhibitor” and the Inhibition type entry is recorded as “mixed type”. Further, the Ki in experiment [1] (setting [3]) is 0.598 ± 0.148 µM. Further, in experiment [1], the Inhibition type result is “Noncompetitive”, half-maximal inhibition (IC50) was put at 0.5 µM and the “Inhibition effect (in words)” value was “strong inhibition effect; also recorded: potent inhibition effect”.

In experiment [1] (setting [3]), `O=C(O)c1ccc(O)c(O)c1` [Protocatechuic acid, 3,4-dihydroxybenzoic acid] displayed an inhibition constant (Ki) of 46.3 ± 31.5 µM. Further, in experiment [1], the Inhibition type entry is “Noncompetitive” and the IC50 is 48 µM.

Regarding `O=C(O)c1cc(O)c(O)c(O)c1` [Gallic acid], in experiment [1] (setting [3]), affinity was put at a Ki of 219 ± 56.3 µM. Besides, in experiment [1], the Inhibition type entry is recorded as “Noncompetitive”, the IC50 turned out to be 176 µM and the “Inhibition effect (in words)” value is recorded as “weak inhibition effect”.

For the compound `COc1cc(C=CC(=O)O)ccc1O` [Ferullic acid, 4-Hydroxy-3-methoxycinnamic acid], affinity in experiment [1] (setting [3]) was put at a Ki of 72.5 ± 29.9 µM. In experiment [1], the Inhibition type entry is listed as “Noncompetitive” and the half-maximal inhibitory concentration (IC50) came out at 69 µM.

The compound `O=C(O)c1cc(O)cc(O)c1` [α-Resorcylic acid, 3,5-dihydroxybenzoic acid] returned a Ki in experiment [1] (setting [3]) of 127 ± 22 µM. For the same compound, in experiment [1], the Inhibition type result was “Noncompetitive” and the midpoint of inhibition, the IC50, lay at 110 µM.

In the case of `O=C(O)/C=C/c1ccc(O)cc1` [p-Coumaric acid, trans-4-Hydroxycinnamic acid], the Ki in experiment [1] (setting [3]) was determined as 53.1 ± 2 µM. In addition, in experiment [1], the Inhibition type result is “Uncompetitive” and the IC50 came out at 57 µM.

In turn, `O=C(O)c1cccc(O)c1` [3-Hydroxybenzoic acid, 3-hydroxybenzoic acid] displayed a Ki in experiment [1] (setting [3]) of 176 ± 24.5 µM. Besides, in experiment [1], the Inhibition type entry is listed as “Noncompetitive” and the IC50 was found to be 150 µM.

In experiment [1] (setting [3]), `O=C(/C=C/c1ccc(O)c(O)c1)O[C@@H]1C[C@](O)(C(=O)O)C[C@@H](O)[C@H]1O` [Chlorogenic acid] yielded a Ki of 1.56 ± 0.436 µM. In experiment [1], the Inhibition type entry is “mixed type”, the IC50 turned out to be 5.47 µM and the “Inhibition effect (in words)” value is “strong inhibition effect”. Further, in experiment [1] (setting [4]), the Ki is reported as 28.05 µM and the “Ki'” value is 28.05 ± 10.210 µM.

Regarding `O=C(O)c1ccc(O)cc1` [4-Hydroxybenzoic acid], the inhibition constant (Ki) in experiment [1] (setting [3]) is 52.2 ± 20.8 µM. Moreover, in experiment [1], the Inhibition type result is “Noncompetitive” and half-maximal inhibition (IC50) was put at 50 µM.

The compound `COc1cc(C=CC(=O)O)cc(OC)c1O` [Sinapic acid, 3,5-Dimethoxy-4-hydroxycinnamic acid] registered an inhibitory constant (Ki) in experiment [1] (setting [3]) of 43.4 µM. For the same compound, in experiment [1], the Inhibition type entry was “Noncompetitive” and the concentration for half-maximal inhibition (IC50) stood at 33 µM.

Turning to `COc1cc(C(=O)O)ccc1O` [Vanillic acid, 4-hydroxy-3-methoxybenzoic acid], in experiment [1] (setting [3]), the Ki worked out at 103 ± 56.3 µM. In experiment [1], the Inhibition type result is given as “Noncompetitive” and inhibition was half-maximal at 86 µM (IC50).

(Values after paper PMC6009866, “Inhibition behaviours of some phenolic acids on rat kidney aldose reductase enzyme: an in vitro study” (Journal of Enzyme Inhibition and Medicinal Chemistry, 2017).)
